The record followed here is patent US20190184054A1, “COMPOSITIONS FOR THE TREATMENT OF PAIN AND/OR INFLAMMATION” (BCN PEPTIDES. S.A., priority 2008, published 2019).

Primed or numbered codes have the meaning given here. *: point of attachment. PEG1′ = PEG spacer, n=1 in acetyl-PEGn N-terminus; PEG2′ = PEG spacer, n=2 in acetyl-PEGn N-terminus; PEG3′ = PEG spacer, n=3 in acetyl-PEGn N-terminus; PEG4′ = PEG spacer, n=4 in acetyl-PEGn N-terminus; PEG5′ = PEG spacer, n=5 in acetyl-PEGn N-terminus; Palmitoyl = CCCCCCCCCCCCCCCC(=O)*

For the first assay, the system named is inflammation produced by intraplantar injection of carrageenan. The assay can be described thus: carrageenan test: paw volume increase after intraplantar carrageenan, measured with a plethysmometer. In kind it is in vivo. The settings on record: diclofenac 10 mg/kg, positive control used as the standard. An excerpt:
Carrageenan is an irritant whose administration causes a powerful inflammation four hours after administration. The inflammatory process can be easily discerned as an increase in the volume of the paw that received carrageenan, measured with a plethysmometer. […] Therefore, the peptides of this invention have anti-inflammatory activity in vivo.
On the technique in general: In the carrageenan paw model, swelling and tenderness develop within hours.
Regarding `O=C(O)Cc1ccccc1Nc1c(Cl)cccc1Cl` [diclofenac, reference compound], the “ANTI-INFLAMMATORY ACTIVITY” value is 100%.

Staying with this assay, now noted: peptides 5 mg/kg (im); decrease in inflammation standardized to positive control diclofenac.
For “Ac-PEG1-SEQ ID No. 11-NH2: acetyl-PEGn (n=1) N-terminus, amide C-terminus; SNAP-25 residues 12 to 17 (SEQ ID No. 11) ({Ac-PEG1′}-EEMQRR-NH2; listed as Homo sapiens)”, the “ANTI-INFLAMMATORY ACTIVITY” value is on record as 21%.
Same read-out and setting: with “Ac-PEG4-SEQ ID No. 11-NH2: acetyl-PEGn (n=4) N-terminus, amide C-terminus; SNAP-25 residues 12 to 17 (SEQ ID No. 11) ({Ac-PEG4′}-EEMQRR-NH2; listed as Homo sapiens)” the figure was 23%.
As to “Ac-PEG3-SEQ ID No. 11-NH2: acetyl-PEGn (n=3) N-terminus, amide C-terminus; SNAP-25 residues 12 to 17 (SEQ ID No. 11) ({Ac-PEG3′}-EEMQRR-NH2; listed as Homo sapiens)”, the “ANTI-INFLAMMATORY ACTIVITY” value was 42%.
Consider “Ac-PEG5-SEQ ID No. 11-NH2: acetyl-PEGn (n=5) N-terminus, amide C-terminus; SNAP-25 residues 12 to 17 (SEQ ID No. 11) ({Ac-PEG5′}-EEMQRR-NH2; listed as Homo sapiens)”, for which the “ANTI-INFLAMMATORY ACTIVITY” value was 53%.
On to “Ac-PEG2-SEQ ID No. 11-NH2: acetyl-PEGn (n=2) N-terminus, amide C-terminus; SNAP-25 residues 12 to 17 (SEQ ID No. 11) ({Ac-PEG2′}-EEMQRR-NH2; listed as Homo sapiens)”, for which the “ANTI-INFLAMMATORY ACTIVITY” value is 29%.
Same read-out and setting: the same measure for “Ac-SEQ ID No. 9-NH2: acetyl N-terminus, amide C-terminus; SNAP-25 residues 26 to 38 (SEQ ID No. 9) (Ac-LESTRRMLQLVEE-NH2; listed as Homo sapiens)”: 98%; for “Ac-SEQ ID No. 11-NH2: acetyl N-terminus, amide C-terminus; SNAP-25 residues 12 to 17 (SEQ ID No. 11) (Ac-EEMQRR-NH2; listed as Homo sapiens)”: 49%; for “Palm-SEQ ID No. 9-NH2: palmitoyl N-terminus, amide C-terminus; SNAP-25 residues 26 to 38 (SEQ ID No. 9) (Palmitoyl-LESTRRMLQLVEE-NH2; SMILES CCCCCCCCCCCCCCCC(=O)N[C@@H](CC(C)C)C(=O)N[C@@H](CCC(=O)O)C(=O)N[C@@H](CO)C(=O)N[C@H](C(=O)N[C@@H](CCCNC(=N)N)C(=O)N[C@@H](CCCNC(=N)N)C(=O)N[C@@H](CCSC)C(=O)N[C@@H](CC(C)C)C(=O)N[C@@H](CCC(N)=O)C(=O)N[C@@H](CC(C)C)C(=O)N[C@H](C(=O)N[C@@H](CCC(=O)O)C(=O)N[C@@H](CCC(=O)O)C(N)=O)C(C)C)[C@@H](C)O; listed as Homo sapiens)”: 77%.
On the same count and under the same terms, with “Palm-SEQ ID No. 11-MH2: palmitoyl N-terminus, amide C-terminus; SNAP-25 residues 12 to 17 (SEQ ID No. 11) (Palmitoyl-EEMQRR-NH2; SMILES CCCCCCCCCCCCCCCC(=O)N[C@@H](CCC(=O)O)C(=O)N[C@@H](CCC(=O)O)C(=O)N[C@@H](CCSC)C(=O)N[C@@H](CCC(N)=O)C(=O)N[C@@H](CCCNC(=N)N)C(=O)N[C@@H](CCCNC(=N)N)C(N)=O; listed as Homo sapiens)” the figure was 81%; with “Palm-SEQ ID No. 4-NH2: palmitoyl N-terminus, amide C-terminus; SNAP-25 residues 10 to 22 (SEQ ID No. 4) (Palmitoyl-ELEEMQRRADQLA-NH2; SMILES CCCCCCCCCCCCCCCC(=O)N[C@@H](CCC(=O)O)C(=O)N[C@@H](CC(C)C)C(=O)N[C@@H](CCC(=O)O)C(=O)N[C@@H](CCC(=O)O)C(=O)N[C@@H](CCSC)C(=O)N[C@@H](CCC(N)=O)C(=O)N[C@@H](CCCNC(=N)N)C(=O)N[C@@H](CCCNC(=N)N)C(=O)N[C@@H](C)C(=O)N[C@@H](CC(=O)O)C(=O)N[C@@H](CCC(N)=O)C(=O)N[C@@H](CC(C)C)C(=O)N[C@@H](C)C(N)=O; listed as Homo sapiens)”, 58%.
Same read-out and setting: with “Ac-SEQ ID No. 26-NH2: acetyl N-terminus, amide C-terminus; SNAP-25-derived sequence SEQ ID No. 26 (Ac-EEMQRRA-NH2; listed as Homo sapiens)” the figure was 14%; with “Ac-SEQ ID No. 4-NH2: acetyl N-terminus, amide C-terminus; SNAP-25 residues 10 to 22 (SEQ ID No. 4) (Ac-ELEEMQRRADQLA-NH2; listed as Homo sapiens)”, 65%.
